Test system: bone marrow cells
Assay: Bone marrow cell proliferation activity (uptake of [3H]-thymidine)
Format: cell-based, C57BL/6 mouse
Conditions: GM-CSF 100 U/ml alone, NK175203 0 μg/ml
Experimental: The femur was withdrawn from C57BL/6 mouse (10 weeks old) and the bone marrow cells were washed out in Eagle's MEM medium. After allowing to stand at 37° C. for 2 hours in 5% CO2, the supernatant was gently taken to recover the suspended cells alone. The cells were centrifuged at 1200 rpm for 5 minutes to collect the cells. After rinsing with α-MEM medium, the cells were suspended in 20% FBS-containing α-MEM medium. The thus obtained bone marrow cells were inoculated on a 96-well plate in a concentration of 7.5×10^5 cells/200 μl/well, together with the physiologically active substance NK175203 of the present invention or GM-CSF (Lantrell, M. A. et al., Proc. Natl. Acad. Sci., 8.2, 6250-6254, 1985). Incubation was then performed at 37° C. for 112 hours in 5% CO2. Finally ^3 H-thymidine of 37 KBq was added to the system. After culturing for 8 hours, uptake of ^3 H-thymidine into the cells was determined by a liquid scintillation counter.

Question: What does the source list for “GM-CSF: GM-CSF (Lantrell, M. A. et al., Proc. Natl. Acad. Sci.)”?
Answer: Uptake of [3H]-Thymidine, mean ± standard error: 33484.4 ± 2136.1; Uptake of [3H]-Thymidine, % (reference (100%) of the GM-CSF series): 100%
